From ChEMBL document CHEMBL4800731, “Data for DCP probe JNJ-65355394” (2021)
Values belong to the compound of their own block, whether it stands above or below them. Active and inactive are the calls of the source. No cut-off for these calls is given here.

Columns and labels:
[1] = target: Kappa-type opioid receptor (Homo sapiens, UniProt P41145); test: GPCRScan assay: inhibition of KOR; set-up: radioligand conc. used [nm] 0.6 – 1.2, parental cells stable HEK
Protein O-GlcNAcase = target: T1, Protein O-GlcNAcase (Homo sapiens, UniProt O60502); test: Cell-based OGA assay
T1 sequence (O60502 whole entry): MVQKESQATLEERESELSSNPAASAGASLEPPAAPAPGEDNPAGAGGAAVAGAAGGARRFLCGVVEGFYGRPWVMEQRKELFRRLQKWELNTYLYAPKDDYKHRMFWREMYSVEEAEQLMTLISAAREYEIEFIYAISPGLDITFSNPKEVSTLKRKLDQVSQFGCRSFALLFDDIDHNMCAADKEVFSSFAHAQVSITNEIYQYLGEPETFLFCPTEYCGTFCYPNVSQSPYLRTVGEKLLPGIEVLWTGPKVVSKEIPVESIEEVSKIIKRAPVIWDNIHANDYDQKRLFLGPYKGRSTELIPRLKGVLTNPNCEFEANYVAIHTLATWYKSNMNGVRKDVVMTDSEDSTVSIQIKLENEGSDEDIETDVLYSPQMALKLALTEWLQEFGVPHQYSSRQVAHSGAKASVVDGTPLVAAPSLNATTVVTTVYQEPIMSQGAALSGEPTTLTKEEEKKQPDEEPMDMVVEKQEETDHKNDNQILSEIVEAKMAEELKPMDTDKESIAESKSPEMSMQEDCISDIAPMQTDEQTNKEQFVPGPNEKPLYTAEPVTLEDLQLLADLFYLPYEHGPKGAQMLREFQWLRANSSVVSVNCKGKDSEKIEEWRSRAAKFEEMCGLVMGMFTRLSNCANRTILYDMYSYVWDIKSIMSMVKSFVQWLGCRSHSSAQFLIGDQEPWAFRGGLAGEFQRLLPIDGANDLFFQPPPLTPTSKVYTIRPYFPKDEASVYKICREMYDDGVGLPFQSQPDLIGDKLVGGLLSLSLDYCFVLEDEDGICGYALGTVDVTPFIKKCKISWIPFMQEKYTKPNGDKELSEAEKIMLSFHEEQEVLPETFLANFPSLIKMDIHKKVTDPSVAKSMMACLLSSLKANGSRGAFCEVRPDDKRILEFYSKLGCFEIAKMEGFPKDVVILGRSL

[2] = cML1 Cerep panel
[3] = target: 5-hydroxytryptamine receptor 2A (Homo sapiens) (UniProt P28223); test: h5HT2A Cerep panel
[4] = target: C-X-C chemokine receptor type 2 (Homo sapiens) (UniProt P25025); test: hBCXCR2 Cerep panel
[5] = target: C-C chemokine receptor type 1 (Homo sapiens) (UniProt P32246); test: hCCR1 Cerep panel
[6] = target: Galanin receptor type 2 (Homo sapiens) (UniProt O43603); test: hGAL2 Cerep panel
[7] = target: Nociceptin receptor (Homo sapiens) (UniProt P41146); test: hORL1 Cerep panel
Rattus norvegicus = species on record: Rattus norvegicus; test: rCaCH (D888) Cerep panel
[8] = target: Adenosine receptor A2a (Homo sapiens) (UniProt P29274); test: hA2A Cerep panel
[9] = target: Alpha-1A adrenergic receptor (Rattus norvegicus) (UniProt P43140); test: rAa1 Cerep panel
[10] = target: T2, Alpha-1B adrenergic receptor (Homo sapiens) (UniProt P35368); test: hAb1 Cerep panel
T2 sequence (whole entry): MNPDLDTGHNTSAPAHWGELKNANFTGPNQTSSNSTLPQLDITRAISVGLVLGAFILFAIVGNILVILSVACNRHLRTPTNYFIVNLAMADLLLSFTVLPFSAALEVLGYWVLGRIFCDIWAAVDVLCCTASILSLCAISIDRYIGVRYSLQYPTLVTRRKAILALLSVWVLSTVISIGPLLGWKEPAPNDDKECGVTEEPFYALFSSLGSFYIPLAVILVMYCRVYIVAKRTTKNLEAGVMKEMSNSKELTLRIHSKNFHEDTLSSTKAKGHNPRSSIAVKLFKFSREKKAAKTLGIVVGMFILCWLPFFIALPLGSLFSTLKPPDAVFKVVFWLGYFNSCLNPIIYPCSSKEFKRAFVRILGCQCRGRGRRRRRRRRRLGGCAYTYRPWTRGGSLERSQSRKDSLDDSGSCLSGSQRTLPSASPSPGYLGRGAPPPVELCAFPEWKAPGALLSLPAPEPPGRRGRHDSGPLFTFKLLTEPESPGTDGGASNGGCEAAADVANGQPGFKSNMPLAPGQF

[11] = target: Cholecystokinin receptor type A (Homo sapiens) (UniProt P32238); test: hCCKA Cerep panel
[12] = target: D(1A) dopamine receptor (Homo sapiens) (UniProt P21728); test: hD1 Cerep panel
[13] = target: T3, Sodium-dependent dopamine transporter (Homo sapiens, UniProt Q01959); test: hDAT Cerep panel
[14] = target: Substance-K receptor (Homo sapiens) (UniProt P21452); test: hNK2 Cerep panel
[15] = target: Neuromedin-K receptor (Homo sapiens) (UniProt P29371); test: hNK3 Cerep panel
[16] = target: Delta-type opioid receptor (Homo sapiens) (UniProt P41143); test: hOP1 Cerep panel
[17] = target: 5-hydroxytryptamine receptor 5A (Homo sapiens) (UniProt P47898); test: h5HT5A Cerep panel
[18] = target: Somatostatin receptor (Mus musculus) (UniProt P30935+O08858+P30875+P30873+P49660); test: mSST Cerep panel; assay type: protein assay
[19] = target: Vasopressin V1a receptor (Homo sapiens) (UniProt P37288); test: hV1a Cerep panel
[20] = target: Histamine H1 receptor (Homo sapiens) (UniProt P35367); test: hH1 Cerep panel
[21] = target: Histamine H2 receptor (Homo sapiens) (UniProt P25021); test: hH2 Cerep panel
[22] = target: D(3) dopamine receptor (Homo sapiens) (UniProt P35462); details: Compound concentration 10.0 uM
[23] = target: T3, Sodium-dependent dopamine transporter; test: GPCRScan assay: inhibition of DAT; set-up: radioligand conc. used [nm] 3.6 – 16.0, parental cells stable HEK
[24] = target: Alpha-2B adrenergic receptor (Homo sapiens, UniProt P18089); test: GPCRScan assay: inhibition of Alpha2B; set-up: radioligand conc. used [nm] 1.5 – 2.0, parental cells HEKT
[25] = target: Sigma intracellular receptor 2 (Homo sapiens, UniProt Q5BJF2); test: GPCRScan assay: inhibition of Sigma 2; set-up: radioligand conc. used [nm] 5.0, parental cells HEKT
[26] = target: 5-hydroxytryptamine receptor 1E (Homo sapiens) (UniProt P28566); details: Compound concentration 10.0 uM
[27] = target: Muscarinic acetylcholine receptor M5 (Homo sapiens) (UniProt P08912); details: Compound concentration 10.0 uM
[28] = target: Beta-3 adrenergic receptor (Homo sapiens) (UniProt P13945); details: Compound concentration 10.0 uM

T3 sequence (Q01959 whole entry): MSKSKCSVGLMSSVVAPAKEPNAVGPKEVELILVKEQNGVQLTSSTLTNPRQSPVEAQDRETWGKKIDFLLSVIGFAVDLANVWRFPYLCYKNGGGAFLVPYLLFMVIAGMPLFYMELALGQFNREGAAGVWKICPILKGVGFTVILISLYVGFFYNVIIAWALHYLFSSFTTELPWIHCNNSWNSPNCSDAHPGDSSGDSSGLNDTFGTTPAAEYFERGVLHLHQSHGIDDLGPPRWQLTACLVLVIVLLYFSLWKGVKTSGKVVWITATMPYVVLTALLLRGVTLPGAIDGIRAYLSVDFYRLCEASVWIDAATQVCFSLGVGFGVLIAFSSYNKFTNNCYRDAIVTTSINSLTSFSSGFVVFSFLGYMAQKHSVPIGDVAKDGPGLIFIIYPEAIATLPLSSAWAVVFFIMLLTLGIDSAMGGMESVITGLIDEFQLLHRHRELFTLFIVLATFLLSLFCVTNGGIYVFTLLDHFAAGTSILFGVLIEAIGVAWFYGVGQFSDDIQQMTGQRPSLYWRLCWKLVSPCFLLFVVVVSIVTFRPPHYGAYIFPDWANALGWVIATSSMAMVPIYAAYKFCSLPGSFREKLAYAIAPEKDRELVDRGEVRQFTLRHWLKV
Kappa-type opioid receptor, sequence (P41145 whole entry): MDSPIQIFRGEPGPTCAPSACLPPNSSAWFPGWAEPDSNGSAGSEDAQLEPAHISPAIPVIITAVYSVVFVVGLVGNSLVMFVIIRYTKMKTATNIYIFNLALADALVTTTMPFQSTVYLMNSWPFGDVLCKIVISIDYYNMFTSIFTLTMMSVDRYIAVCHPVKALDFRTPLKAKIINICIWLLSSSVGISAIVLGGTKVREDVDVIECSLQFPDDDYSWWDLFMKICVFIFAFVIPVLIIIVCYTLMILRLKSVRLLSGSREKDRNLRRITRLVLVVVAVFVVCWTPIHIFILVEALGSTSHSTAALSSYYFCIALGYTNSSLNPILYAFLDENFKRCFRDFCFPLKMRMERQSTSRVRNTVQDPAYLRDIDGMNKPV
Sigma intracellular receptor 2, sequence (Q5BJF2 whole entry): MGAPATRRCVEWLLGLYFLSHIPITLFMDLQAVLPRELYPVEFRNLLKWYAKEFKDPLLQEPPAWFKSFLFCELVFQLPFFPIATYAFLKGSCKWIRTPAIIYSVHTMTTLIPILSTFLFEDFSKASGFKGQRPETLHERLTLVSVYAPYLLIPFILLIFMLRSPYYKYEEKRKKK
Alpha-2B adrenergic receptor, sequence (P18089 whole entry): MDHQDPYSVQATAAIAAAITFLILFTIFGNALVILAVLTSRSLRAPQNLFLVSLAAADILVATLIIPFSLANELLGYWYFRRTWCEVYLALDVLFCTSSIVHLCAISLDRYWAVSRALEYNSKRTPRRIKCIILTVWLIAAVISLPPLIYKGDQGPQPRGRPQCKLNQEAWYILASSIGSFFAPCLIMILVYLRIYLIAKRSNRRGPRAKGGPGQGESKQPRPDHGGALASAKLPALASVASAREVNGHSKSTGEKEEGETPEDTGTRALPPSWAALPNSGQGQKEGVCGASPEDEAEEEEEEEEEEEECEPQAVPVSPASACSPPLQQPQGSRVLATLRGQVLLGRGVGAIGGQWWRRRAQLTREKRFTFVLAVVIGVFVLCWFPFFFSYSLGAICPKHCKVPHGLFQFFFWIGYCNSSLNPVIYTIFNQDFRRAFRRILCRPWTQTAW
Nociceptin receptor (Homo sapiens), sequence (P41146 whole entry): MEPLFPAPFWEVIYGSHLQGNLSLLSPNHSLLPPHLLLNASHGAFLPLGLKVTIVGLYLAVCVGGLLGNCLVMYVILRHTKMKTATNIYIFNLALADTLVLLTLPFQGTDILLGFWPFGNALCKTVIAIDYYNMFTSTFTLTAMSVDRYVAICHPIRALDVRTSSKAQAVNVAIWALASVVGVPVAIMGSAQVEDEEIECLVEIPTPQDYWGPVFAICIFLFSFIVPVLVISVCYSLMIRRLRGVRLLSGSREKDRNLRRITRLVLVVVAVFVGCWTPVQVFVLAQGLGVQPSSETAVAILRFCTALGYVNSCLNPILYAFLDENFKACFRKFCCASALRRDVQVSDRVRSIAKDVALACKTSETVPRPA
Alpha-1A adrenergic receptor (Rattus norvegicus), sequence (P43140 whole entry): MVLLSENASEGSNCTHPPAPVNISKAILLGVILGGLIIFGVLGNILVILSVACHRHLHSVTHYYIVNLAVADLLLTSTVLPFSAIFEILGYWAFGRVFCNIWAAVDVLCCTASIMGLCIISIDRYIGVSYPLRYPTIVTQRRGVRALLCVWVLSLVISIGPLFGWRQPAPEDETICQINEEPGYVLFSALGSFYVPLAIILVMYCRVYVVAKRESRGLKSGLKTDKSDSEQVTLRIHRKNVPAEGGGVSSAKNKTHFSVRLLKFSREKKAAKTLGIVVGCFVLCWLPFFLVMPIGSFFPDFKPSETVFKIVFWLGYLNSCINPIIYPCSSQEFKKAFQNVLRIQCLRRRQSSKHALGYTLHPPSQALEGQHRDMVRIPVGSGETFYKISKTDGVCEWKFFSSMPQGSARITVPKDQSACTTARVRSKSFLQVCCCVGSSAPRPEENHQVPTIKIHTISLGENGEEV
Somatostatin receptor (Mus musculus), sequence (P30935 whole entry): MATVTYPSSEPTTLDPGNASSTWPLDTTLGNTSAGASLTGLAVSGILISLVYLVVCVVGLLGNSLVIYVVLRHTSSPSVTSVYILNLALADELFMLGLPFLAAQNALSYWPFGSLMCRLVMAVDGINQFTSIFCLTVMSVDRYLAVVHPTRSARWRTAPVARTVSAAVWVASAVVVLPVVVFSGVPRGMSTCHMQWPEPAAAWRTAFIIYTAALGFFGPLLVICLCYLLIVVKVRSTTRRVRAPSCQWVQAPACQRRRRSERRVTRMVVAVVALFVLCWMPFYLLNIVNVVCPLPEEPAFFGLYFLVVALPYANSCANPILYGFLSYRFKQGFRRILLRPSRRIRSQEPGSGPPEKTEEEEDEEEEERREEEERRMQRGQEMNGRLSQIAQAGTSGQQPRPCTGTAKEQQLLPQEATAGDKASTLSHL
Somatostatin receptor (Mus musculus), sequence (O08858 whole entry): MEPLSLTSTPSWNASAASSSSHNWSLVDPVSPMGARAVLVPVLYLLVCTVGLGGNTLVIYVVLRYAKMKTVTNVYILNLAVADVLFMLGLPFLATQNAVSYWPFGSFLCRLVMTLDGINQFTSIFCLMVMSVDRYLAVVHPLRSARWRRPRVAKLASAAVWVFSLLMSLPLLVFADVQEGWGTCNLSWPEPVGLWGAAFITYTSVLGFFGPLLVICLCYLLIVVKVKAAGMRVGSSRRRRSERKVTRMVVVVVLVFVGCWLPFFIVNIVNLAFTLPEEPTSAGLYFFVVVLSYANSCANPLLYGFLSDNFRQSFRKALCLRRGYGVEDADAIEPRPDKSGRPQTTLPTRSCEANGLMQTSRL
Somatostatin receptor (Mus musculus), sequence (P30875 whole entry): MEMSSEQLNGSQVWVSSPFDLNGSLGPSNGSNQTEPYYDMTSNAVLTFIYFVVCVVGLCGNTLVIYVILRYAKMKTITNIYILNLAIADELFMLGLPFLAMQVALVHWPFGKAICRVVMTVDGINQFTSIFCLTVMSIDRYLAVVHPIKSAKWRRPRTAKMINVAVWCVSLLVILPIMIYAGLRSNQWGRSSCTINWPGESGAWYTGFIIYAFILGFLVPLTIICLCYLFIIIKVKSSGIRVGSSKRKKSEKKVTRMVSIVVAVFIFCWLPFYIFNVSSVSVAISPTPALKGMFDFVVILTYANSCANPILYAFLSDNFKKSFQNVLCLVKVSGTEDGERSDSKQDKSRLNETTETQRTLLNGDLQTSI
Somatostatin receptor (Mus musculus), sequence (P30873 whole entry): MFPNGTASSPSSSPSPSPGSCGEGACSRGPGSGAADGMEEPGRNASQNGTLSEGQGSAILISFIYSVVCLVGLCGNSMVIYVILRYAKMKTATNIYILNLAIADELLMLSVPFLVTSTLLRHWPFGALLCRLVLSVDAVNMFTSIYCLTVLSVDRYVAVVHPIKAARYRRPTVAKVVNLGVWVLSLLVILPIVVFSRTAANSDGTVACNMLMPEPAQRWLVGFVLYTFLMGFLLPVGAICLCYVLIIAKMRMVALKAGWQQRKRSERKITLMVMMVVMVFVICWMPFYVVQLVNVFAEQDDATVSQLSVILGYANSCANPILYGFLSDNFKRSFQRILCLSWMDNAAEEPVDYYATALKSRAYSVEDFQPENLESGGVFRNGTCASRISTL
Somatostatin receptor (Mus musculus), sequence (P49660 with tags, fused parts or gaps): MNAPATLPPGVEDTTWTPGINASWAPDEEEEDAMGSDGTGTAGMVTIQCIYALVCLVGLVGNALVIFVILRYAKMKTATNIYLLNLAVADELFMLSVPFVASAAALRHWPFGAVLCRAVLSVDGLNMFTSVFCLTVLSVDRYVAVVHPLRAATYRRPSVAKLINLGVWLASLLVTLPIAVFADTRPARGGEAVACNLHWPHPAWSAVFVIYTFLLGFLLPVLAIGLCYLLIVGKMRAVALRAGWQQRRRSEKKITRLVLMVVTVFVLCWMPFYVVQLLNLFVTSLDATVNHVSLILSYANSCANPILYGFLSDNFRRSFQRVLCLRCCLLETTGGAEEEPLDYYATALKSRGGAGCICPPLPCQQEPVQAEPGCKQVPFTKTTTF
Histamine H2 receptor (Homo sapiens), sequence (P25021 whole entry): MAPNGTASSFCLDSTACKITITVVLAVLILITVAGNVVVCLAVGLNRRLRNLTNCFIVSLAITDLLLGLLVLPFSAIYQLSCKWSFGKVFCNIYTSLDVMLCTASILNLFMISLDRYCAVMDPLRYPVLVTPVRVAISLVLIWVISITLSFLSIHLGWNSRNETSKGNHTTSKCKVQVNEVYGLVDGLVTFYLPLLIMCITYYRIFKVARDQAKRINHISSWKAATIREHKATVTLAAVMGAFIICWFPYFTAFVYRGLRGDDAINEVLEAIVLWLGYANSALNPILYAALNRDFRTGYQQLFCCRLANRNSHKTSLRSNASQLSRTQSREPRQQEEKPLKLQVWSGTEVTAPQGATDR

Ki ([1]; read-out: Ki): 773 nM
Ki ([1]; read-out: pKi (converted)): 741 nM
IC50 (Protein O-GlcNAcase): 3.9 nM (active)
effect [2]: 11.5%
effect [3]: 4.1%
effect [4]: 0.85%
effect [5]: -1.85%
effect [6]: 1.4%
effect [7]: -5.7%
effect (Rattus norvegicus): 4.9%
effect [8]: 4.9%
effect [9]: 19.5%
effect [10]: 11.2%
effect [11]: -22%
effect [12]: 20.1%
effect [13]: 19.3%
effect [14]: 4.5%
effect [15]: 7%
effect [16]: 20.4%
effect [17]: -7.65%
effect [18]: 4.2%
effect [19]: 7.65%
effect [20]: 5.7%
effect [21]: 11.4%
inhibition [22]: 10.3%
SMILES: CC(=O)Nc1ncc(CN2CCC[C@H](Cc3cc(C)nc(C)c3)C2)s1 [JNJ-65355394]

Ki ([23]; read-out: Ki): 5280 nM
Ki ([23]; read-out: pKi (converted)): 5250 nM
Ki ([24]; read-out: Ki): 3690 nM
Ki ([24]; read-out: pKi (converted)): 3670 nM
Ki ([25]; read-out: Ki): 1400 nM
Ki ([25]; read-out: pKi (converted)): 1350 nM
inhibition [26]: 0.93%
inhibition [27]: -6.15%
inhibition [28]: -8.59%
SMILES: CC(=O)Nc1nc(CN2CCC[C@H](Cc3cc(C)nc(C)c3)C2)cs1 [JNJ-73924149]
